The text below walks through data of EPA's ToxValDB 9.5.

In series [1] the test system is Rattus norvegicus. Put plainly: LD100; higher = less toxic. Conditions: acute; oral.
Series [2] deals with Oryctolagus sp. The following applies: acute; dermal; New Zealand.
For series [3], the system named is Rattus norvegicus.
Series [4] has as its system Mus musculus.
Series [5] has as its system Rattus norvegicus. Conditions: subchronic; duration: 12 weeks; oral; diet; Kidney: Toxicity + Liver: Toxicity.
In series [6] the test system is Rattus norvegicus. Conditions: oral, M/F; for NOAEL: Sprague-Dawley.
Series [7] concerns Rattus norvegicus. Conditions: oral.
Series [8] relates to Anas platyrhynchos. The following applies: oral.
Series [9] relates to Neovison sp. Conditions: repeat dose other; oral; Mink.
Series [10] concerns Rattus norvegicus. Conditions: repeat dose other; oral.
For series [11], the system named is Homo sapiens. Conditions: clinical; duration: 5 minutes; inhalation; M; respiratory.
The subject of series [12] is Mus musculus. Conditions: oral.
In series [13] the test system is Mus musculus. Conditions: chronic; oral; M/F; lung and kidney histopathology.
For series [14], the system named is Homo sapiens. Conditions: clinical, oral, diet.
Series [15] deals with Cavia porcellus. The following applies: repeat dose other; oral; Guinea Pig.
In series [16] the test system is Gallus gallus. The following applies: repeat dose other; oral.
The subject of series [17] is Mus musculus. The following applies: repeat dose other; oral.
The test system of series [18] is Sus scrofa. Conditions: oral, Not specified; for LOEL: duration: 14 weeks, M/F, Changes in serum testosterone and estradiol and testes weight.
For series [19], the system named is Cricetulus sp. The following applies: oral, gavage, Hamster.
The mark [20] stands for this setting: reproduction developmental, duration: 10 days, oral, gavage, F, CD1.
The mark [21] stands for this setting: reproduction developmental, M/F, forelimb hair loss + Parturition mortality.
Where [22] appears, read: chronic, duration: 14 weeks, inhalation, F, Fischer 344.
[23] abbreviates: chronic, duration: 14 weeks, inhalation, M, Fischer 344.
The mark [24] stands for this setting: chronic, duration: 14 weeks, inhalation, F, B6C3F1.
Setting [25] is: chronic, duration: 14 weeks, inhalation, M, B6C3F1.

Bounds are passed on as bounds.

Regarding `CC(O)C(=O)O` (stereo unspecified) [Lactic acid], the LD100 in series [1] came to 11200 mg/kg. The median lethal dose (LD50) – broadly, the dose at which mortality reaches 50% – in series [2] is above 2000 mg/kg. Also, the LC50 – broadly, the concentration that kills 50% of the test population – in [3] (acute, Inhalation, Fischer 344) is above 7.94 mg/L. In addition, the LOAEL – broadly, the lowest dose or exposure tested at which an adverse effect was seen – in series [3] (subchronic, duration: 13 weeks, dermal, F, Sprague-Dawley) came to 886 mg/kg-day. Further, the NOAEL (usually the highest dose or exposure tested at which no adverse effect was seen) is at least 570 mg/kg-day in [4] (reproduction developmental, duration: 10 days, oral, gavage, CD1, generation: F1) and at least 570 mg/kg-day in [4] (setting [20]).
As to `ClC1C(Cl)C(Cl)C(Cl)C(Cl)C1Cl` (stereo unspecified) [Lindane], the NOAEL in series [5] was 0.33 mg/kg-day; in series [6] (developmental, duration: 13 weeks, drinking water, developmental), 7.6e-05 mg/kg-day; in [7] (subchronic, F, liver and kidney toxicity) it was 0.33 mg/kg-day; in [8], 2 mg/kg-day. Besides, the LOAEL in series [6] (developmental, duration: 1 days, gavage, Bor:spf, developmental) stood at 1 mg/kg-day; in [7] (subchronic, M, liver and kidney toxicity), 1.55 mg/kg-day; in series [8] it was 20 mg/kg-day.
In [9], `[CH3][Hg][Cl]` [Methylmercuric(II) chloride] returned an LOAEL of 0.025 mg/kg-day and a no observed adverse effect level (NOAEL) of 0.015 mg/kg-day. Also, in series [10], the LOAEL is 0.16 mg/kg-day and the no observed adverse effect level (NOAEL) came out at 0.032 mg/kg-day.
Take `[P]` [Phosphorus]: the lowest-observed-adverse-effect level (LOAEL) in [11] was found to be 187 mg/m3; in series [7] (setting [21]), 0.075 mg/kg-day. Also, the no observed adverse effect level (NOAEL) in [6] (reproduction developmental, duration: 204 days, gavage, reproductive) worked out at 0.015 mg/kg-day; in series [7] (setting [21]), 0.015 mg/kg-day.
For the molecule `O=C1OC(=O)c2ccccc21` [Phthalic anhydride], the lowest-observed-adverse-effect level (LOAEL) in [12] (chronic, duration: 104 weeks, diet, Kidney: Histopathology + Lung: Histopathology) was 1560 mg/kg-day; in [13], 1560 mg/kg-day.
With `CCN(CC)c1nc(C)cc(OP(=S)(OC)OC)n1` [Pirimiphos-methyl], the NOEL was 0.25 mg/kg-day in series [14] (duration: 28 days, M, Borderline ChE depression) and 0.25 mg/kg-day in [14] (duration: 56 days, M/F, Transient plasma ChE depression).
On to `O=[N+]([O-])[O-].[K+]` [Potassium nitrate], for which, in series [15], the LOAEL amounted to 1130 mg/kg-day and the no-observed-adverse-effect level (NOAEL) came to 507 mg/kg-day.
In series [16], `O.O.[Na+].[Na+].[O]=[Mo](=[O])([O-])[O-]` [Sodium molybdate (Na2MoO4) dihydrate] gave an LOAEL of 35.3 mg/kg-day and an NOAEL of 3.5 mg/kg-day.
The molecule `ClC(Cl)=C(Cl)Cl` [Tetrachloroethylene] had an NOAEL in series [12] (subchronic, duration: 6 weeks, Liver: Hepatotoxicity) of 14 mg/kg-day. Also, in series [17], the lowest-observed-adverse-effect level (LOAEL) was determined as 7 mg/kg-day and the NOAEL was 1.4 mg/kg-day.
Turning to `CC(=O)O[C@H]1CC[C@H]2[C@@H]3CCC4=CC(=O)CCC4=C3C=C[C@]12C` [Trenbolone acetate], the LOEL came out at 0.002 mg/kg-day in [18] (chronic, diet) and 2 µg/kg-day in [18] (feed).
As for `CC1=C[C@H]2O[C@@H]3[C@H](O)C[C@](C)([C@@]2(CO)[C@H](O)C1=O)[C@@]31CO1` [Vomitoxin], the NOEL in [18] (repeat dose other, diet, Emesis) is 0.25 mg/kg-day.
For the molecule `CC1=CCC2CC1C2(C)C` (stereo not drawn) [alpha-Pinene], the median lethal dose (LD50) in series [2] was above 5000 mg/kg; in [3] (acute, oral, Wistar) it was 3700 mg/kg. Besides, the no-observed-adverse-effect level (NOAEL) is 600 mg/kg-day in series [19] (developmental, duration: 10 days); 600 mg/kg-day in series [19] (reproduction developmental, duration: 10 days, F); 600 mg/kg-day in series [19] (reproduction developmental); 170 mg/kg-day in series [3] (setting [22]); 21 mg/kg-day in [3] (setting [23]); 260 mg/kg-day in [3] (developmental, duration: 10 days, oral, gavage, Wistar). In addition, the no observed adverse effect level (NOAEL) in series [3] (reproduction developmental, duration: 10 days, oral, gavage, F, Wistar) was 260 mg/kg-day; in series [4] (setting [24]), 279 mg/m3; in [4] (setting [25]) it was 279 mg/m3; in [4] (setting [20]), 560 mg/kg-day. The LOAEL in series [3] (setting [22]) worked out at 340 mg/kg-day; in [3] (setting [23]), 42 mg/kg-day; in series [4] (setting [24]) it was 557 mg/m3; in series [4] (setting [25]), 557 mg/m3.
